Test results taken from patent publication US6656509B1, “Combination of selenium-containing compounds with cytostatics” (Biosyn Arzneimittel GmbH, priority 1998, dated 2003).

Columns and labels:
Assay in all cases: clonogenic assay (colony forming assay)
Type in all cases: cell-based, human
RXF 393 = conditions: RXF 393/9; X194AM
Protocol: (§1) Solid human tumor xenografts growing subcutaneously in serial passages in thymus-aplastic nude mice (NMRI nu/nu strain, obtained from our own breeding facility) were removed under sterile conditions, the cells were mechanically disaggregated and subsequently incubated with an enzyme cocktail consisting of collagenase (1.2-1.8 U/ml, Worthington), DNAse (375 U/ml, Boehringer Mannheim) und hyaluronidase (29 U/ml, Boehringer Mannheim) in RPMI 1640 at 37° C. for 30 minutes. The cell mixture was passed through sieves of 200 μm and 50 μm mesh size and washed thereafter twice with PBS. The percentage of viable cells was determined in a Neubauer counting chamber using trypan blue exclusion.
(§2) The clonogenic assay was performed according to a modified two-layer soft agar assay described by Hamburger and Salmon (Hamburger and Salmon, Science, 197: 461463, 1977). The bottom layer consisted of 0.2 ml Iscoves' Modified Dulbecco's Medium with 20% fetal calf serum and 0.75% agar. 8×10^3 to 1,6×10^4 cells were added to 0.2 ml of the same culture medium together with 0.4% agar and placed in already coated 24-multiwell dishes. Test substances were applied by continuous exposure (drug overlay) in 0.2 ml medium. Every dish included six control wells containing the vehicle- and drug-treated groups in triplicate at six concentrations.
(§3) Cultures were incubated at 37° and 7% CO2 in a humidified atmosphere for 5 to 15 days (depending on the doubling time of the tumor stem cells) and monitored for colony growth using an inverted microscope. Within this period, in vitro tumor growth led to the formation of colonies with a diameter of ≧50 μm. At the time of maximum colony formation counts were performed with an automatic image analysis system (OMNICOM Fas IV, Biosys GmbH). 24 hours prior to this assay, vital colonies were stained with a sterile aqueous solution of 2-(4-iodophenyl)-3-(4-nitrophenyl)-5-phenyltetrazolium chloride (1 mg/ml, 100 μI/well). Drug effects were expressed in terms of the percentage of surviving cells, obtained by comparison of the mean number of colonies in the treated plates with the mean colony count of the untreated controls (test-versus-control-group value, T/C=colony countTreated Group*100/colony countControl Group).
(§4) Coefficient of variation in the control group ≦50%. IC50 and IC70 values were determined by plotting compound concentration versus cell survival rate. Mean IC50 and IC70 values were calculated according to the formula: [formula]
(§5) with x=specific tumor xenograft and n=total number of tumor xenografts studied. If an IC50 or IC70 value could not be determined within the examined dose range, the lowest or highest concentration studied was used for the calculation.

OVXF 899 = conditions: OVXF 899/33; X185AM
Protocol: as §1, §2, §3, §4, §5

LXFS 650 = conditions: LXFS 650/9; X199AM
Protocol: as §1, §2, §3, §4, §5

RXF 423 = conditions: RXF 423/16; X183AM
Protocol: as §1, §2, §3, §4, §5

PRXF DU145X = conditions: PRXF DU145X/15, X229AM
Protocol: as §1, §2, §3, §4, §5

MAXF MCF7X = conditions: MAXF MCF7X/28; X218AM
Protocol: as §1, §2, §3, §4, §5

LXFL 529 = conditions: LXFL 529/18, X182AM
Protocol: as §1, §2, §3, §4, §5

OVXF 1353 = conditions: OVXF 1353/17; X217AM
Protocol: as §1, §2, §3, §4, §5

## O=[Se]([O-])[O-].[Na+].[Na+] [sodium selenite]
RXF 393
  Test/control (%) at drug concentration [μM] 1.: 31%
  Test/control (%) at drug concentration [μM] 10.: 32%
  Test/control (%) at drug concentration [μM] 100.: 10%
  Test/control (%) at drug concentration [μM] .001: 62%
  Test/control (%) at drug concentration [μM] .01: 45%
  Test/control (%) at drug concentration [μM] .1: 31%
  Test/control (%) class at drug concentration [μM] 1.: + (+ (30% ≦ T/C < 50%))
  Test/control (%) class at drug concentration [μM] 10.: + (+ (30% ≦ T/C < 50%))
  Test/control (%) class at drug concentration [μM] 100.: +++ (+++ (T/C ≦ 10%))
  Test/control (%) class at drug concentration [μM] .001: − (− (T/C ≧ 50%))
  Test/control (%) class at drug concentration [μM] .01: − (− (T/C ≧ 50%))
  Test/control (%) class at drug concentration [μM] .1: + (+ (30% ≦ T/C < 50%))
OVXF 899
  Test/control (%) at drug concentration [μM] 1.: 70%
  Test/control (%) at drug concentration [μM] 10.: 73%
  Test/control (%) at drug concentration [μM] 100.: 1%
  Test/control (%) at drug concentration [μM] .001: 80%
  Test/control (%) at drug concentration [μM] .01: 79%
  Test/control (%) at drug concentration [μM] .1: 66%
  Test/control (%) class at drug concentration [μM] 1.: − (− (T/C ≧ 50%))
  Test/control (%) class at drug concentration [μM] 10.: − (− (T/C ≧ 50%))
  Test/control (%) class at drug concentration [μM] 100.: +++ (+++ (T/C ≦ 10%))
  Test/control (%) class at drug concentration [μM] .001: − (− (T/C ≧ 50%))
  Test/control (%) class at drug concentration [μM] .01: − (− (T/C ≧ 50%))
  Test/control (%) class at drug concentration [μM] .1: − (− (T/C ≧ 50%))
LXFS 650
  Test/control (%) at drug concentration [μM] 1.: 84%
  Test/control (%) at drug concentration [μM] 10.: 109%
  Test/control (%) at drug concentration [μM] 100.: 16%
  Test/control (%) at drug concentration [μM] .001: 100%
  Test/control (%) at drug concentration [μM] .01: 100%
  Test/control (%) at drug concentration [μM] .1: 98%
  Test/control (%) class at drug concentration [μM] 1.: − (− (T/C ≧ 50%))
  Test/control (%) class at drug concentration [μM] 10.: − (− (T/C ≧ 50%))
  Test/control (%) class at drug concentration [μM] 100.: ++ (++ (10% < T/C < 30%))
  Test/control (%) class at drug concentration [μM] .001: − (− (T/C ≧ 50%))
  Test/control (%) class at drug concentration [μM] .01: − (− (T/C ≧ 50%))
  Test/control (%) class at drug concentration [μM] .1: − (− (T/C ≧ 50%))
RXF 423
  Test/control (%) at drug concentration [μM] 1.: 92%
  Test/control (%) at drug concentration [μM] 10.: 110%
  Test/control (%) at drug concentration [μM] 100.: 0%
  Test/control (%) at drug concentration [μM] .001: 99%
  Test/control (%) at drug concentration [μM] .01: 111%
  Test/control (%) at drug concentration [μM] .1: 120%
  Test/control (%) class at drug concentration [μM] 1.: − (− (T/C ≧ 50%))
  Test/control (%) class at drug concentration [μM] 10.: − (− (T/C ≧ 50%))
  Test/control (%) class at drug concentration [μM] 100.: +++ (+++ (T/C ≦ 10%))
  Test/control (%) class at drug concentration [μM] .001: − (− (T/C ≧ 50%))
  Test/control (%) class at drug concentration [μM] .01: − (− (T/C ≧ 50%))
  Test/control (%) class at drug concentration [μM] .1: − (− (T/C ≧ 50%))
PRXF DU145X
  Test/control (%) at drug concentration [μM] 1.: 91%
  Test/control (%) at drug concentration [μM] 10.: 5%
  Test/control (%) at drug concentration [μM] 100.: 0%
  Test/control (%) at drug concentration [μM] .001: 97%
  Test/control (%) at drug concentration [μM] .01: 96%
  Test/control (%) at drug concentration [μM] .1: 92%
  Test/control (%) class at drug concentration [μM] 1.: − (− (T/C ≧ 50%))
  Test/control (%) class at drug concentration [μM] 10.: +++ (+++ (T/C ≦ 10%))
  Test/control (%) class at drug concentration [μM] 100.: +++ (+++ (T/C ≦ 10%))
  Test/control (%) class at drug concentration [μM] .001: − (− (T/C ≧ 50%))
  Test/control (%) class at drug concentration [μM] .01: − (− (T/C ≧ 50%))
  Test/control (%) class at drug concentration [μM] .1: − (− (T/C ≧ 50%))
PRXF DU145X; listed as selenium
  Test/control (%) at drug concentration [μM] 10.: < 30%
MAXF MCF7X
  Test/control (%) at drug concentration [μM] 1.: 78%
  Test/control (%) at drug concentration [μM] 10.: 97%
  Test/control (%) at drug concentration [μM] 100.: 0%
  Test/control (%) at drug concentration [μM] .001: 93%
  Test/control (%) at drug concentration [μM] .01: 85%
  Test/control (%) at drug concentration [μM] .1: 90%
  Test/control (%) class at drug concentration [μM] 1.: − (− (T/C ≧ 50%))
  Test/control (%) class at drug concentration [μM] 10.: − (− (T/C ≧ 50%))
  Test/control (%) class at drug concentration [μM] 100.: +++ (+++ (T/C ≦ 10%))
  Test/control (%) class at drug concentration [μM] .001: − (− (T/C ≧ 50%))
  Test/control (%) class at drug concentration [μM] .01: − (− (T/C ≧ 50%))
  Test/control (%) class at drug concentration [μM] .1: − (− (T/C ≧ 50%))
LXFL 529
  Test/control (%) at drug concentration [μM] 1.: 61%
  Test/control (%) at drug concentration [μM] 10.: 9%
  Test/control (%) at drug concentration [μM] 100.: 0%
  Test/control (%) at drug concentration [μM] .001: 90%
  Test/control (%) at drug concentration [μM] .01: 78%
  Test/control (%) at drug concentration [μM] .1: 72%
  Test/control (%) class at drug concentration [μM] 1.: − (− (T/C ≧ 50%))
  Test/control (%) class at drug concentration [μM] 10.: +++ (+++ (T/C ≦ 10%))
  Test/control (%) class at drug concentration [μM] 100.: +++ (+++ (T/C ≦ 10%))
  Test/control (%) class at drug concentration [μM] .001: − (− (T/C ≧ 50%))
  Test/control (%) class at drug concentration [μM] .01: − (− (T/C ≧ 50%))
  Test/control (%) class at drug concentration [μM] .1: − (− (T/C ≧ 50%))
LXFL 529; listed as selenium
  Test/control (%) at drug concentration [μM] 10.: < 30%
OVXF 1353
  Test/control (%) at drug concentration [μM] 1.: 90%
  Test/control (%) at drug concentration [μM] 10.: 100%
  Test/control (%) at drug concentration [μM] 100.: 0%
  Test/control (%) at drug concentration [μM] .001: 96%
  Test/control (%) at drug concentration [μM] .01: 91%
  Test/control (%) at drug concentration [μM] .1: 100%
  Test/control (%) class at drug concentration [μM] 1.: − (− (T/C ≧ 50%))
  Test/control (%) class at drug concentration [μM] 10.: − (− (T/C ≧ 50%))
  Test/control (%) class at drug concentration [μM] 100.: +++ (+++ (T/C ≦ 10%))
  Test/control (%) class at drug concentration [μM] .001: − (− (T/C ≧ 50%))
  Test/control (%) class at drug concentration [μM] .01: − (− (T/C ≧ 50%))
  Test/control (%) class at drug concentration [μM] .1: − (− (T/C ≧ 50%))
